Values after ≈ are worked out from the molar mass of the structure shown. Each block holds one compound with its values, some of them ahead of it. Active and inactive are the calls of the source. The calls are words filed in the database; no cut-off is given here.
Key:
Aurora kinase A = molecular target: T1, Aurora kinase A (Homo sapiens, UniProt O14965); assay: Allosteric inhibition of AurkA (unknown origin)
T1 sequence (O14965 whole entry): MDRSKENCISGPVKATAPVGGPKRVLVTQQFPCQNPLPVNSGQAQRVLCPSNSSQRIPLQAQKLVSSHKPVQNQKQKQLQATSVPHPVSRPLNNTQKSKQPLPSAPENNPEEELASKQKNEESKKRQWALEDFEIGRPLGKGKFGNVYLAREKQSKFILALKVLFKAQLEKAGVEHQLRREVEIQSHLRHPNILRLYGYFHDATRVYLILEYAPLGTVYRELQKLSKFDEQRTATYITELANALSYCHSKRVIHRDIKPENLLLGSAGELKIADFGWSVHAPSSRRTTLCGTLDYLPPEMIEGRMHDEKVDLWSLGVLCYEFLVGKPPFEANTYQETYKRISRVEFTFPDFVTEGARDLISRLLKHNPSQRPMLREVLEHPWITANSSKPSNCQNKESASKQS

HeLa [1] = assay: Antiproliferative activity against human HeLa cells assessed as inhibition of cell growth incubated for 72 hrs in absence of PHA-767491 by celltiter-glo assay; format: functional
HT-29 [2] = assay: Downregulation of phospho-histone H3 level at Ser10 residue in human HT-29 cells at 20 uM measured at 48 hrs by Western blot analysis; format: functional, cell-based
HeLa [3] = assay: cells; settings: Homo sapiens, 72 h
HeLa [4] = assay: Inhibition of DNA replication during G1 to S transition in nocodazole synchronized human HeLa cells assessed as reduction in Edu content in new synthesized DNA by measuring Edu positive cells at 100 uM measured after 8 hrs by Edu incorporation based flow cytometry analysis (reference value: 19.7%); format: functional; parameters: scale not given: the % may be the effect or the level left
NCI-H358 = assay: Induction of cell cycle arrest in human NCI-H358 cells assessed as G1/S phase transition at 100 uM measured after 48 hrs by RNase/PI staining based flow cytometry analysis; format: functional
HCT-116 [5] = assay: Induction of cell cycle arrest at G2/M phase in human HCT-116 cells at 100 uM measured after 48 hrs by RNase/PI staining based flow cytometry analysis; format: functional
HeLa [6] = assay: Induction of cell cycle arrest in human HeLa cells at 100 uM measured after 48 hrs by RNase/PI staining based flow cytometry analysis; format: functional
PANC-1 = assay: Induction of cell cycle arrest in human PANC-1 cells at 100 uM measured after 48 hrs by RNase/PI staining based flow cytometry analysis; format: functional
[7] = Permeability of compound at 5 uM by PAMPA assay; format: ADME; settings: read-out: permeability
HCT-116 [8] = assay: Downregulation of phospho-histone H3 level at Ser10 residue in human HCT-116 cells at 20 uM measured at 12 to 24 hrs by Western blot analysis; format: functional, cell-based; settings: time 12-24 hrs
[9] = Aqueous solubility of compound at pH 7.4; format: physicochemical
HT-29 [10] = assay: Downregulation of phospho-histone H3 level at Ser10 residue in human HT-29 cells at 20 uM measured at 12 to 24 hrs by Western blot analysis; format: functional, cell-based; settings: time 12-24 hrs
HeLa [11] = assay: Inhibition of DNA replication during G1 to S transition in nocodazole synchronized human HeLa cells assessed as reduction in Edu content in new synthesized DNA by measuring Edu positive cells at 100 uM measured after 9 hrs by Edu incorporation based flow cytometry analysis (reference value: 16.8%); format: functional; parameters: scale not given: the % may be the effect or the level left
HT-29 [12] = assay: Induction of cell cycle arrest at G2/M phase in human HT-29 cells at 100 uM measured after 48 hrs by RNase/PI staining based flow cytometry analysis; format: functional
HCT-116 [13] = assay: Downregulation of phospho-histone H3 level at Ser10 residue in human HCT-116 cells at 20 uM measured at 48 hrs by Western blot analysis; format: functional, cell-based
A549 = assay: Induction of cell cycle arrest in human A549 cells assessed as G1/S phase transition at 100 uM measured after 48 hrs by RNase/PI staining based flow cytometry analysis; format: functional
HeLa [14] = assay: Inhibition of DNA replication during G1 to S transition in nocodazole synchronized human HeLa cells assessed as reduction in Edu content in new synthesized DNA by measuring Edu positive cells at 1 uM measured after 8 hrs by Edu incorporation based flow cytometry analysis (reference value: 19.7%); format: functional, cell-based; parameters: scale not given: the % may be the effect or the level left
HeLa [15] = assay: Inhibition of DNA replication during G1 to S transition in nocodazole synchronized human HeLa cells assessed as reduction in Edu content in new synthesized DNA by measuring Edu positive cells at 1 uM measured after 9 hrs by Edu incorporation based flow cytometry analysis (reference value: 16.8%); format: functional, cell-based; parameters: scale not given: the % may be the effect or the level left

IC50 (Aurora kinase A): < 20 µM
SMILES: CC1=C(C(=O)Nc2ccc(F)cc2F)[C@H](c2cccnc2)C2=C(C[C@@H](c3ccccc3)CC2=O)N1

IC50 (Aurora kinase A): < 20 µM
SMILES: COc1ccc(CNC(=O)C(C)Oc2ccc3c(c2)c2ccnc4c5ccccc5c(=O)n3c24)cc1 (stereo unspecified)

GI50 (HeLa [1]): 71.7 µM | GI50 (HeLa [3]): 14 µM | Papp at 5 µM [7]: 65.5 ×10⁻⁶ cm/s | solubility [9]: 161 µM (≈ 53.5 µg/mL)
SMILES: O=C(NCc1ccc2c(c1)OCO2)c1cccc(-c2ccncc2)c1
Activity (HT-29 [2]): Active | Activity (HeLa [4]): 7% | Activity (NCI-H358): Active | Activity (HCT-116 [5]): Active | Activity (HeLa [6]): inactive | Activity (PANC-1): inactive | Activity (HCT-116 [8]): inactive | Activity (HT-29 [10]): inactive | Activity (HeLa [11]): 1.6% | Activity (HT-29 [12]): Active | Activity (HCT-116 [13]): Active | Activity (A549): Active

SMILES: Cc1cc(Nc2cc(N3CCN(C)CC3)nc(Sc3ccc(NC(=O)C4CC4)cc3)n2)n[nH]1
Activity (HeLa [14]): 21.7% | Activity (HeLa [15]): 22.1%

IC50 (Aurora kinase A): < 20 µM
SMILES: CC(Oc1ccc2c(c1)c1ccnc3c4ccccc4c(=O)n2c13)C(=O)NCc1ccc2c(c1)OCO2 (stereo unspecified)
